Test results reported in patent publication US20080064702A1, “Use of folates for the prevention and treatment of vascular diseases” (priority 2006, published 2008).
“Also recorded” adds a separate entry of the source. Read-outs that look alike come from different tables or passages of the source.

Experiments:
saphenous veins [1] = system: saphenous veins
Experimental: (§1) Vessel Harvesting and Ex Vivo Studies. Samples of SV (n=38) and IMA (n=46) from a total of 61 patients, were harvested during CABG operation, as previously described (Channon K M, Trends Cardiovasc Med 2004; 14:323-327; Guzik T J et al., Circulation 2002; 105:1656-1662). Vessel segments were transferred to the laboratory within 30 minutes, in ice cold Krebs-Henseleit buffer. Segments of SV and IMA were incubated with 5-MTHF (0-100 μM) in Krebs-Henseleit buffer for 45 minutes prior to assays of endothelial function, superoxide/peroxynitrite production, radio-labelled arginine/citrulline conversion, western blotting or tissue 5-MTHF and biopterin levels.
(§2) Vasomotor Studies. Endothelium-dependent and endothelium-independent dilatation were assessed using isometric tension studies, as previously described (Guzik T J et al, Circ Res. 2000; 86:e85). Vessel rings were equilibrated and passively pre-tensioned to 3 g, an optimal resting tension that was determined in baseline studies of contractile response to KCl. Following precontraction with phenylephrine (3×10^−6M), vasomotor responses to the endothelium-mediated agonists acetylcholine (ACh, 10^−9M to 10^−5M) and bradykinin (BK, 10^−9 M to 10^−5M), were quantified in 4 equally sized segments from the same vessel. In the ex vivo experiments, vasomotor responses were repeated after incubation for 45 minutes with 0 (control), 1, 10 or 100 μM 5-MTHF, added to the organ bath chambers. Finally, relaxations to the NO donor sodium nitroprusside (SNP, 10^−10M to 10^−6M), were evaluated in the presence of the NOS inhibitor NG-nitro-L-arginine methyl ester (L-NAME; 100 μM).

[2] = system: saphenous veins and internal mammary arteries; conditions: SV and IMA, higher 5-MTHF concentrations (10, 100 μM) compared with 1 μM
Experimental: as §1
Superoxide/Peroxynitrite Measurements. Vascular superoxide production was measured from fresh human vessels using lucigenin (5 μM)-enhanced chemiluminescence as previously described (Skatchkov M P et al, Biochem Biophys Res Commun. 1999; 254:319). […] NOS-derived superoxide was measured by adding L-NAME (100 μM) in the equilibrating buffer, and by calculating the difference in superoxide signal compared with basal conditions. Vascular peroxynitrite was determined using luminol (100 μM) instead of lucigenin, and by subtracting the remaining signal after adding the specific peroxynitrite scavenger uric acid (1 mM), as previously described (Laursen J B et al, Circulation. 2001; 103:1282).

[3] = 45 minutes after infusion of 5-MTHF; from 11.0±0.62 before
Description: (§3) In Vivo Studies. Patients (n=56) undergoing CABG participated in a double-blind placebo controlled study, where they received an intravenous infusion of either 5-MTHF (Merck Eprova, Switzerland) or placebo, administered before the CABG.

saphenous veins [4] = system: saphenous veins; remark: listed apart in the source
Experimental: as §3, §2

[5] = system: saphenous veins and internal mammary arteries; conditions: ca. 45 min after 0.13 mg/kg i.v., vs placebo
Experimental: as §3
Superoxide/Peroxynitrite Measurements. Vascular superoxide production was measured from fresh human vessels using lucigenin (5 μM)-enhanced chemiluminescence as previously described (Skatchkov M P et al, Biochem Biophys Res Commun. 1999; 254:319). Samples of SV and IMA from the same patient were opened longitudinally to expose the endothelial surface and then equilibrated for 20 minutes in oxygenated (95% O2/5% CO2) Krebs-HEPES buffer (2 mL, pH=7.4) at 37° C. […]. NOS-derived superoxide was measured by adding L-NAME (100 μM) in the equilibrating buffer, and by calculating the difference in superoxide signal compared with basal conditions. Vascular peroxynitrite was determined using luminol (100 μM) instead of lucigenin, and by subtracting the remaining signal after adding the specific peroxynitrite scavenger uric acid (1 mM), as previously described (Laursen J B et al, Circulation. 2001; 103:1282).

[6] = Superoxide scavenging assay, xanthine/xanthine oxidase system; assay type: biochemical
Experimental: Superoxide and Peroxynitrite Scavenging Assays. The direct superoxide scavenging effect of 5-MTHF was evaluated with the use of xanthine/xanthine oxidase system. Superoxide production was induced by adding xanthine oxidase ([…]/mL) in Krebs HEPES buffer (2 mL, pH=7.4) at 37° C., containing xanthine (0.133 mM) and lucigenin (5 μM), in the presence of 5-MTHF (0-100 μM) or equal concentrations of ascorbic acid as positive control. Peroxynitrite production was induced by adding 3-morpholinosydnonimine (SIN-1, 1 μM) in Krebs HEPES buffer (2 mL, pH=7.4) at 37° C. containing luminol (100 μM), in the presence of different concentrations of 5-MTHF (0-100 μM) or equal concentrations of uric acid as positive control as previously described (Kuzkaya N et al, J Biol Chem. 2003; 278:22546). The scavenging effects of 5-MTHF, vitamin C or uric acid were calculated as the percent inhibition of chemiluminescence compared with control.

[7] = Peroxynitrite scavenging assay, SIN-1 system with luminol; assay type: biochemical; conditions: SIN-1 1 μM; for direct peroxynitrite scavenging effect: concentrations as low as 1 μM, 5-MTHF and uric acid at equal concentrations
Experimental: Superoxide and Peroxynitrite Scavenging Assays. The direct superoxide scavenging effect of 5-MTHF was evaluated with the use of xanthine/xanthine oxidase system. […] The scavenging effects of 5-MTHF, vitamin C or uric acid were calculated as the percent inhibition of chemiluminescence compared with control.

vascular endothelium = conditions: vessels from 5-MTHF-treated patients
Experimental: as §3
Oxidative Fluorescent Microtopography. In situ superoxide production was determined in vessel cryosections with the oxidative fluorescent dye dihydroethidium (DHE) (Bendall J K et al, Circ Res. 2005; 97:864). Paired cryosections ([…]) from the same vessel were incubated with DHE (2 μmol/L) in PBS, with or without L-NAME (100 μM). Fluorescence images (x40, Zeiss LSM 510 META laser 6 scanning confocal microscope) were obtained from each vessel quadrant, incorporating the luminal side of the vessel to quantify endothelial cell fluorescence. In each case, segments of vessel rings (with and without L-NAME) were analyzed in parallel with identical imaging parameters. DHE image analysis was carried out in a blinded fashion, and by two independent investigators, by using Image-Pro Plus software (Media Cybernetics).

eNOS = eNOS (Homo sapiens, UniProt P29474); conditions: IMA, 5-MTHF 1 μM for 45 minutes; paired control 0.14±0.02%/g
Experimental: as §1

[8] = system: saphenous veins and internal mammary arteries; conditions: IMA, 45 min ex vivo with 1 μM 5-MTHF, vs control
Experimental: as §1
Determination of Biopterin Levels. Biopterin levels in human vessels were determined by HPLC, as previously described (Alp N J et al, J Clin Invest. 2003; 112:725) and expressed as pmol/g of tissue. To examine the effect of 5-MTHF on peroxynitrite-induced oxidation of BH4, SIN-1 (2 μM) was used to oxidize BH4 (0.1 μM) in the presence or absence of 5-MTHF (1 μM) at 37° C. for 14 minutes (Milstien S and Katusic Z. Biochem Biophys Res Commun. 1999; 263:681).

[9] = SV, 45 min
Experimental: Plasma and tissue levels of 5-MTHF were determined by high performance liquid chromatography (HPLC), as previously described (Leeming R J et al, Metabolism. 1990; 39:902).

[10] = 0.13 mg/kg i.v.; for plasma concentration: preliminary studies
Experimental: (§4) Patients (n=56) undergoing CABG participated in a double-blind placebo controlled study, where they received an intravenous infusion of either 5-MTHF (Merck Eprova, Switzerland) or placebo, administered before the CABG. […] Samples 5 of SV and IMA were harvested ˜45 minutes after the infusion of 5-MTHF (mean time of harvesting 45.7±2.9 minutes after infusion), and assayed for NO-mediated vasomotor function, vascular superoxide production, tissue 5-MTHF and biopterin levels, as described below.
(§5) Blood samples were collected prior to administration of 5-MTHF or placebo, and at the time of vessel harvesting. […] Plasma and tissue levels of 5-MTHF were determined by high performance liquid chromatography (HPLC), as previously described (Leeming R J et al, Metabolism. 1990; 39:902).

[11] = ~45 min after 0.13 mg/kg i.v.
Experimental: as §4, §5

[12] = 5-MTHF 10 or 100 μM compared with 1 μM
[13] = SV segments ~45 min after 0.13 mg/kg i.v., vs placebo

Chain of eNOS (P29474 2-1203 limits assumed): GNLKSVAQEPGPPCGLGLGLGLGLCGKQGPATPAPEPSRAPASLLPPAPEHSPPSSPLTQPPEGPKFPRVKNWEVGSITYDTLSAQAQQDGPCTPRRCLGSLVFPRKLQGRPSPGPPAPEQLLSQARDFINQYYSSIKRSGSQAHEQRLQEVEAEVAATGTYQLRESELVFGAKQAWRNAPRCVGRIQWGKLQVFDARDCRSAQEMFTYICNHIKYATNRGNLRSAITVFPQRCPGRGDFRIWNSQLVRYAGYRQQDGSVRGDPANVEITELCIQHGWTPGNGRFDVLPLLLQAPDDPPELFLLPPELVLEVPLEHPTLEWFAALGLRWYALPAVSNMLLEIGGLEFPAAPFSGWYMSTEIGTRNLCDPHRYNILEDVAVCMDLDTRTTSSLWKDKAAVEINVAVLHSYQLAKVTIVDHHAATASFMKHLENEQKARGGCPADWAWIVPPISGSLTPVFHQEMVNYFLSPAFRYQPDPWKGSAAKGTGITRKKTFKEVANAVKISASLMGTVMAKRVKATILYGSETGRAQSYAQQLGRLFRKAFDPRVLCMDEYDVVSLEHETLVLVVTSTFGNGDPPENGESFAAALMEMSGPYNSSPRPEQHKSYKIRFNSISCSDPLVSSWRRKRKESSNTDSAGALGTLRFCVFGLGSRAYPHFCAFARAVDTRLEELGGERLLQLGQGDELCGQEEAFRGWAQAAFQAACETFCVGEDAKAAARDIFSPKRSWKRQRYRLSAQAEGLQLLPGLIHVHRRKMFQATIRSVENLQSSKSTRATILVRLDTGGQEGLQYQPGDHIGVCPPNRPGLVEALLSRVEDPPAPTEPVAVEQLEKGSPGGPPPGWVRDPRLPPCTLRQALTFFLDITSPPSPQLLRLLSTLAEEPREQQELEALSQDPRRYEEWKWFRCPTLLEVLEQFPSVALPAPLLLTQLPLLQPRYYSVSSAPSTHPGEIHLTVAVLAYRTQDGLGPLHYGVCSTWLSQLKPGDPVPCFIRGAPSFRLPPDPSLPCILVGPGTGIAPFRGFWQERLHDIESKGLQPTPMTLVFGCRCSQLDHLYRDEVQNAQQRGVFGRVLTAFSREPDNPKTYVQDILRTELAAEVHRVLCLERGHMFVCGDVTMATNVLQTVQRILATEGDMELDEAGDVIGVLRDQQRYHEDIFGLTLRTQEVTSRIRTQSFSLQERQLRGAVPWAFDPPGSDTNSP

CN1c2c(nc(N)[nH]c2=O)NCC1CNc1ccc(C(=O)N[C@@H](CCC(=O)O)C(=O)O)cc1 (stereo partly shown) [5-MTHF, 5-methyltetrahydrofolate]
maximum relaxations to Ach (saphenous veins [1]; [12]): no further increase | maximum relaxations to BK (saphenous veins [1]; [12]): no further increase | vasomotor responses to the endothelium-independent agonist SNP (saphenous veins [1]; 5-MTHF-incubated vs control vessel segments, data not shown): no differences | absolute contractions in response to phenylephrine after incubation (saphenous veins [1]; baseline 7.9±0.8 g, after incubation): remained unchanged | vascular peroxynitrite production [2]: no further reductions | vascular superoxide production [2]: no further reductions | plasma tHcy [3]: 9.42 ± 0.46 µmol/L | absolute pre-contractions to phenylephrine (saphenous veins [4]; 5-MTHF-treated group, placebo 7.72±1.31 g): 8.20 ± 1.26 g | vasomotor responses to acetylcholine (ACh) (saphenous veins [4]; [13]): significantly greater | vasomotor responses to bradykinin (BK) (saphenous veins [4]; [13]): significantly greater | maximal vasorelaxations to ACh (saphenous veins [4]; SV segments ~45 min after 0.13 mg/kg i.v., placebo 19.4±3.3%): 43.2±4.5% | maximal vasorelaxations to BK (saphenous veins [4]; SV segments ~45 min after 0.13 mg/kg i.v., placebo 37.1±3.7%): 51.4±4.2% | vascular superoxide ([5]; IMA): significantly lower | vascular superoxide ([5]; SV): significantly lower | effect on measurable superoxide ([6]; low concentrations (1-10 μM)): no detectable effect | superoxide scavenging effect ([6]; only at concentrations >10 μM (FIG. 5A)): weak superoxide scavenging effect | superoxide scavenging ([6]; very high concentrations (100 μM)): only modest superoxide scavenging | direct peroxynitrite scavenging effect [7]: strong direct peroxynitrite scavenging effect; also recorded: potent scavenging effect | reduction of measurable peroxynitrite ([7]; at 1 μM): 75% | DHE fluorescence in other regions of the vessel wall (vascular endothelium): unaffected | citrulline production (conversion of radio-labelled arginine to citrulline) (eNOS): 0.20±0.03 %/g tissue | BH4/tBio ratio [8]: increased | vascular BH4 [8]: increased | vascular 5-MTHF levels ([9]; incubation with 5-MTHF 1 μM, control 0.40±0.06): 3.40±0.71 nmol/g tissue | vascular 5-MTHF levels ([9]; incubation with 5-MTHF 10 μM): 21.3±8.10 nmol/g tissue | vascular 5-MTHF levels ([9]; incubation with 5-MTHF 100 μM): 57.2±18.9 nmol/g tissue | plasma concentration ([10]; 45 minutes after infusion): 1000 to 2000 nM | plasma 5-MTHF levels ([10]; at the time of vessel harvesting (~45 min), 5-MTHF-treated group): 2.28 ± 0.21 µM | plasma concentration ([10]; immediately after administration): 2000 to 3000 nM | tissue 5-MTHF levels ([11]; IMA, placebo 1.54±0.38): 12.7 ± 2.58 nmol/g | tissue 5-MTHF levels ([11]; SV, placebo 1.19±0.25): 9.35 ± 1.72 nmol/g

O=C1O[C@H]([C@@H](O)CO)C(O)=C1O [ascorbic acid, reference compound]
reduction of measurable superoxide ([6]; at 1 μM): 50% | superoxide scavenging effect ([6]; even at low concentrations (FIG. 5A)): expected scavenging effect

O=c1[nH]c(=O)c2[nH]c(=O)[nH]c2[nH]1 [uric acid, reference compound]
direct peroxynitrite scavenging effect [7]: comparable
